Experimental findings from PubChem BioAssay AID248 (DTP/NCI, 2004) are described below.

“And” between values parts separate entries of the source, which are not always exact repeats. Equal values may be shown once. Toxic doses and inconclusive results are not listed.

In this assay the test system is L1210 leukemia ip in BDF1 mice, survival T/C. Briefly: NCI In Vivo Anticancer Drug Screen. Data for tumor model L1210 Leukemia (intraperitoneal) in B6D2F1 (BDF1) mice. The following applies: endpoint: mean survival time, higher = longer survival. The gist of the method: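 Transplantable tumor model; survival measured in treated vs vehicle control mice. Value = treated/control.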

Where [1] appears, read: dose: 75.0 mg/kg/injection, schedule: Q01DX001 (ip), vehicle: carboxymethylcellulose (CMC).
Setting [2] is: dose: 150.0 mg/kg/injection, schedule: Q01DX001 (ip), vehicle: carboxymethylcellulose (CMC).
The mark [3] stands for this setting: dose: 100.0 mg/kg/injection, schedule: Q04DX003 (ip), vehicle: saline.
The mark [4] stands for this setting: dose: 200.0 mg/kg/injection, schedule: Q04DX003 (ip), vehicle: saline.
Setting [5] is: dose: 400.0 mg/kg/injection, schedule: Q04DX003 (ip), vehicle: saline.
Where [6] appears, read: dose: 200.0 mg/kg/injection, schedule: Q01DX001 (ip), vehicle: saline.
The mark [7] stands for this setting: dose: 50.0 mg/kg/injection, schedule: Q01DX009 (ip), vehicle: saline with Tween-80.
[8] abbreviates: dose: 100.0 mg/kg/injection, schedule: Q01DX009 (ip), vehicle: saline with Tween-80.
Setting [9] is: dose: 200.0 mg/kg/injection, schedule: Q01DX009 (ip), vehicle: saline with Tween-80.
Where [10] appears, read: dose: 100.0 mg/kg/injection, schedule: Q01DX001 (ip), vehicle: saline.
The mark [11] stands for this setting: dose: 400.0 mg/kg/injection, schedule: Q01DX001 (ip), vehicle: saline.
The mark [12] stands for this setting: dose: 100.0 mg/kg/injection, schedule: Q01DX001 (ip), vehicle: saline with Tween-80.
The mark [13] stands for this setting: dose: 200.0 mg/kg/injection, schedule: Q01DX001 (ip), vehicle: saline with Tween-80.
The mark [14] stands for this setting: dose: 400.0 mg/kg/injection, schedule: Q01DX001 (ip), vehicle: saline with Tween-80.

`NC(N)=Nc1ccc(Sc2ccc(N=C(N)N)cc2)cc1`: the T/C is 101 % of control under setting [1]; 98 % of control under setting [2]; 98 % of control (dose: 300.0 mg/kg/injection, schedule: Q01DX001 (ip), vehicle: carboxymethylcellulose (CMC)).

Take `Nc1ccn(CC(=O)N2CCC3(CC2)SSC2(CCN(C(=O)Cn4ccc(N)nc4=O)CC2)S3)c(=O)n1`: the T/C under setting [3] was 97 % of control, the T/C under setting [4] was 91 % of control and the T/C under setting [5] is 97 % of control.

Consider `CCOC(=O)C1CCC(=O)NC1=O` (stereo not drawn), for which the T/C by setting is: (dose: 100.0 mg/kg/injection, schedule: Q01DX009 (ip), vehicle: saline) 111 % of control; under setting [3], 98 % of control; (dose: 200.0 mg/kg/injection, schedule: Q01DX009 (ip), vehicle: saline) 108 % of control; under setting [4], 102 % of control; (dose: 400.0 mg/kg/injection, schedule: Q01DX009 (ip), vehicle: saline) 101 % of control; under setting [5], 104 % of control.

For the compound `COc1ccc(CC[n+]2ccc(C#N)c(C(C)=O)c2)cc1OC`, the T/C under setting [1] was 106 % of control and the T/C under setting [2] is 105 % of control.

For `COc1ccc([N+](=O)[O-])cc1NC(=O)Nc1ccccc1C(F)(F)F`, the T/C (dose: 100.0 mg/kg/injection, schedule: Q01DX009 (ip), vehicle: Klucel (hydroxypropylcellulose) (HPC)) was 88 % of control and 92 % of control; the T/C (dose: 200.0 mg/kg/injection, schedule: Q01DX009 (ip), vehicle: Klucel (hydroxypropylcellulose) (HPC)) was 92 % of control; the T/C (dose: 400.0 mg/kg/injection, schedule: Q01DX009 (ip), vehicle: Klucel (hydroxypropylcellulose) (HPC)) is 92 % of control.

Take `O=N[O-].O=N[O-].[Co].[NH-]CC[N-]CCO.[NH-]CC[N-]CCO`: the T/C was 109 % of control and 122 % of control (dose: 25.0 mg/kg/injection, schedule: Q01DX009 (ip), vehicle: water); 99 % of control (dose: 25.0 mg/kg/injection, schedule: Q04DX003 (ip), vehicle: water); 103 % of control and 109 % of control (dose: 50.0 mg/kg/injection, schedule: Q01DX009 (ip), vehicle: water); 100 % of control (dose: 50.0 mg/kg/injection, schedule: Q04DX003 (ip), vehicle: water); 120 % of control and 89 % of control (dose: 100.0 mg/kg/injection, schedule: Q01DX009 (ip), vehicle: water); 97 % of control and 100 % of control (dose: 100.0 mg/kg/injection, schedule: Q04DX003 (ip), vehicle: water).

Take `CN(C)c1ccc(C2SCSCS2)cc1`: the T/C is, setting by setting: (dose: 100.0 mg/kg/injection, schedule: Q04DX003 (ip), vehicle: Klucel (hydroxypropylcellulose) (HPC)) 97 % of control; (dose: 200.0 mg/kg/injection, schedule: Q04DX003 (ip), vehicle: Klucel (hydroxypropylcellulose) (HPC)) 101 % of control; (dose: 400.0 mg/kg/injection, schedule: Q04DX003 (ip), vehicle: Klucel (hydroxypropylcellulose) (HPC)) 95 % of control.

In the case of `CCCC(NC)C(CC)CN` (stereo not drawn), the T/C was 105 % of control and 120 % of control (dose: 50.0 mg/kg/injection, schedule: Q01DX001 (ip), vehicle: carboxymethylcellulose (CMC)); 97 % of control (dose: 75.0 mg/kg/injection, schedule: Q01DX001 (ip), vehicle: saline); 109 % of control (dose: 88.0 mg/kg/injection, schedule: Q01DX001 (ip), vehicle: saline); 104 % of control (dose: 100.0 mg/kg/injection, schedule: Q01DX001 (ip), vehicle: carboxymethylcellulose (CMC)); 101 % of control (dose: 133.0 mg/kg/injection, schedule: Q01DX001 (ip), vehicle: saline); 97 % of control (dose: 150.0 mg/kg/injection, schedule: Q01DX001 (ip), vehicle: saline). In addition, the T/C (dose: 200.0 mg/kg/injection, schedule: Q01DX001 (ip), vehicle: carboxymethylcellulose (CMC)) was 93 % of control and 242 % of control; the T/C under setting [6] is 101 % of control.

`c1cc[c]([Pb]([S]c2ccccn2)([c]2ccccc2)[c]2ccccc2)cc1`: the T/C runs as follows: (dose: 0.78 mg/kg/injection, schedule: Q01DX009 (ip), vehicle: Klucel (hydroxypropylcellulose) (HPC)) 96 % of control; (dose: 1.56 mg/kg/injection, schedule: Q01DX009 (ip), vehicle: Klucel (hydroxypropylcellulose) (HPC)) 94 % of control; (dose: 3.12 mg/kg/injection, schedule: Q01DX009 (ip), vehicle: Klucel (hydroxypropylcellulose) (HPC)) 106 % of control and 89 % of control; (dose: 25.0 mg/kg/injection, schedule: Q04DX002 (ip), vehicle: Klucel (hydroxypropylcellulose) (HPC)) 100 % of control; (dose: 50.0 mg/kg/injection, schedule: Q04DX002 (ip), vehicle: Klucel (hydroxypropylcellulose) (HPC)) 88 % of control.

Regarding `CCOC(=O)C(C#N)C1c2ccccc2Nc2ccccc21` (stereo not drawn), the T/C was 98 % of control under setting [7], 95 % of control under setting [8] and 91 % of control under setting [9].

`c1ccc(CSC2=NCCS2)cc1`: the T/C is, setting by setting: under setting [10], 101 % of control; under setting [8], 98 % of control; under setting [6], 106 % of control; under setting [9], 98 % of control; under setting [11], 106 % of control; (dose: 400.0 mg/kg/injection, schedule: Q01DX009 (ip), vehicle: saline with Tween-80) 104 % of control.

Consider `O=C(Nc1ccccc1Cl)Oc1c(Cl)cc(Cl)c2ccccc12`, for which the T/C was 100 % of control (dose: 25.0 mg/kg/injection, schedule: Q01DX009 (ip), vehicle: Klucel (hydroxypropylcellulose) (HPC)); 105 % of control (dose: 50.0 mg/kg/injection, schedule: Q01DX009 (ip), vehicle: Klucel (hydroxypropylcellulose) (HPC)); 91 % of control (dose: 100.0 mg/kg/injection, schedule: Q04DX002 (ip), vehicle: Klucel (hydroxypropylcellulose) (HPC)).

With `O=C(O)c1ccccc1C(=O)OC1=CS(=O)(=O)CC1`, the T/C reads like this: (dose: 50.0 mg/kg/injection, schedule: Q01DX001 (ip), vehicle: saline with Tween-80) 97 % of control; under setting [12], 101 % of control and 104 % of control; under setting [13], 95 % of control and 123 % of control; under setting [14], 104 % of control and 105 % of control.

Regarding `CC(C)(N)CO`, the T/C (dose: 50.0 mg/kg/injection, schedule: Q01DX001 (ip), vehicle: saline) was 104 % of control; the T/C under setting [10] was 101 % of control; the T/C (dose: 100.0 mg/kg/injection, schedule: Q04DX002 (ip), vehicle: saline) was 100 % of control; the T/C under setting [3] was 106 % of control; the T/C under setting [6] was 104 % of control; the T/C (dose: 200.0 mg/kg/injection, schedule: Q04DX002 (ip), vehicle: saline) was 110 % of control. Moreover, the T/C was 106 % of control under setting [4]; 101 % of control under setting [11]; 100 % of control (dose: 400.0 mg/kg/injection, schedule: Q04DX002 (ip), vehicle: saline); 105 % of control under setting [5].

Consider `CSc1ccc(NC(=O)Oc2ccc3c(C)cc(=O)oc3c2)cc1`, for which the T/C (dose: 25.0 mg/kg/injection, schedule: Q01DX009 (ip), vehicle: saline with Tween-80) is 93 % of control and 100 % of control; the T/C under setting [7] was 95 % of control and 89 % of control; the T/C under setting [12] is 94 % of control; the T/C (dose: 100.0 mg/kg/injection, schedule: Q04DX002 (ip), vehicle: saline with Tween-80) was 98 % of control and 91 % of control; the T/C (dose: 100.0 mg/kg/injection, schedule: Q04DX003 (ip), vehicle: saline with Tween-80) is 87 % of control; the T/C under setting [13] is 94 % of control. Further, the T/C runs as follows: (dose: 200.0 mg/kg/injection, schedule: Q04DX002 (ip), vehicle: saline with Tween-80) 94 % of control and 91 % of control; (dose: 200.0 mg/kg/injection, schedule: Q04DX003 (ip), vehicle: saline with Tween-80) 86 % of control; under setting [14], 96 % of control; (dose: 400.0 mg/kg/injection, schedule: Q04DX002 (ip), vehicle: saline with Tween-80) 96 % of control and 98 % of control; (dose: 400.0 mg/kg/injection, schedule: Q04DX003 (ip), vehicle: saline with Tween-80) 95 % of control.

For the compound `c1cc(OCCN2CC2)ccn1`, the T/C by setting is: (dose: 12.5 mg/kg/injection, schedule: Q01DX001 (ip), vehicle: carboxymethylcellulose (CMC)) 98 % of control; (dose: 25.0 mg/kg/injection, schedule: Q01DX001 (ip), vehicle: carboxymethylcellulose (CMC)) 108 % of control.
